# A melting point compilation (Tetko et al.)
row,SMILES,melting point
1,CCOC(=O)c1ncoc1-c1ccco1,93 to 95 °C
2,Fc1cc(CBr)ccc1Br,38 to 40 °C
3,Cc1sc(N)nc1-c1cccc([N+](=O)[O-])c1,175 to 177 °C
4,OCCOc1ccccc1C(F)(F)F,74 to 76 °C
5,CC(C)(C)n1ncc2c(=O)[nH]cnc21,226 to 228 °C
6,O=C(O)c1cnc(Cl)c([N+](=O)[O-])c1,126 to 128 °C
7,Cc1cc(F)c([N+](=O)[O-])cc1S(=O)(=O)Cl,66 to 68 °C
8,Cc1cc(F)c(C(=O)O)cc1F,167 to 169 °C
9,CC(=O)c1c(C)nn(CCS(C)(=O)=O)c1C,139 to 141 °C
10,CC1(C)CCc2[nH]c(=O)c(C(=O)O)cc2C1,242 to 244 °C
11,CCc1ccc(C(C)=CC(=O)O)cc1,104 to 106 °C
12,O=C(O)c1cccc(OC2CCCCC2)c1,75 to 77 °C
13,Cc1cc(S(N)(=O)=O)c(C)o1,86 to 88 °C
14,NC(=NO)c1ccccc1CN1CCC(O)CC1,137 to 139 °C
15,Cc1nn(-c2ccccc2)c(C)c1C(=O)C(=O)O,206 to 208 °C
16,O=S1(=O)CCNc2ccccc21,139 to 141 °C
17,O=C1CC(C(=O)O)CC(=O)N1,204 to 206 °C
18,O=C(O)CCCCCNC1=NS(=O)(=O)c2ccccc21,189 to 191 °C
19,Nc1cc(C2CCNCC2)n[nH]1,151 to 153 °C
20,O=C(O)COc1cc(Cl)ccc1Cl,146 to 148 °C
21,Cc1n[nH]c(C)c1S(=O)(=O)N(C)Cc1ccco1,160 to 163 °C
22,CS(=O)(=O)c1cccc(C(=O)c2ccccc2)c1,86 to 88 °C
23,Cc1ccc(OC2CCNCC2)cc1,44 to 46 °C
24,O=C(CCl)Nc1ccc(S(=O)(=O)N2CCOCC2)cc1,145 to 147 °C

row,SMILES,melting point
1,CC(C)(C)n1ncc(C(=O)O)c1C(F)(F)F,110 to 112 °C
2,Cc1cccc(C(N)=O)c1N,145 to 147 °C
3,Cc1ccc(N)cc1S(=O)(=O)N(C)C,80 to 84 °C
4,Cc1cc(N)ccc1N1CCCC1=O,159 to 161 °C
5,CC(C)CC(N)c1nc(-c2nnc[nH]2)no1 (configuration not stated),203 to 205 °C
6,NNc1cncc(Cl)n1,137 to 139 °C
7,O=[N+]([O-])c1c(F)ccc2ncccc12,84 to 86 °C
8,N#Cc1cnn(-c2ccccc2)c1N,137 to 139 °C
9,Nc1nc(-c2ccccc2O)cs1,140 to 142 °C
10,O=C1CC(C(=O)O)c2ccc(F)cc2N1 (configuration not stated),214 to 216 °C
11,Cc1ccc(C(N)=S)o1,149 to 151 °C
12,O=C(O)c1cn(CC(=O)N2CCCC2)nn1,208 to 210 °C
13,Nc1ccnn1C1CCCCC1,80 to 82 °C
14,CCc1noc(-c2cc(Cl)ccc2N)n1,107 to 109 °C
15,CC(=O)c1cc(-c2ccccc2)ccc1O,49 to 51 °C
16,Nc1ccc(-c2ccccn2)cn1,89 to 91 °C
17,O=C(O)c1cc2c(F)cc(Br)cc2[nH]1,230 to 232 °C
18,COC(=O)Nc1ccc(Br)cc1,122 to 124 °C
19,N#Cc1c(N)cc(N)nc1S,349 to 351 °C
20,Cc1cc(C#N)ccc1-n1cncn1,139 to 141 °C
21,COc1ccc(N)cc1S(=O)(=O)Nc1ccc(Cl)cc1,105 to 107 °C
22,Nc1ccc(OCC(F)(F)F)cc1,66 to 68 °C
23,Cc1ccc(O)c(N)n1,145 to 147 °C
24,Nc1nnc(-c2ccc3c(c2)OCCO3)o1,247 to 249 °C

row,SMILES,melting point
1,O=C(O)COc1ccc(Oc2ccccc2)cc1,127 to 129 °C
2,CC1=NN(c2nc(C)cc(C)n2)C(=O)C1,109 to 111 °C
3,O=C(O)CCNS(=O)(=O)c1ccc(Cl)c([N+](=O)[O-])c1,113 to 115 °C
4,CCN(c1ccccc1)S(=O)(=O)c1cccc(C(=O)O)c1,175 to 177 °C
5,O=C(O)c1ccc2c(c1Cl)C(=O)c1ccccc1C2=O,199 to 201 °C
6,COc1ccc(S(=O)(=O)NCCC(=O)O)cc1,125 to 127 °C
7,NC(CN1CCC(O)CC1)=NO,182 to 184 °C
8,COc1ccc(C=C2CCCc3c2nc2ccccc2c3C(=O)O)cc1OC,110 to 114 °C
9,CC(C)(C)c1cn2nc(Br)sc2n1,105 to 107 °C
10,Cc1ccc(-n2c(-c3ccccc3)cnc2S)c(C)c1,247 to 249 °C
11,CNS(=O)(=O)c1cccc(F)c1,58 to 60 °C
12,Sc1nnnn1C1CCCC1,123 to 125 °C
13,CCc1nc2sccc2c(=O)[nH]1,199 to 201 °C
14,CC(C)Oc1ccc(-c2csc(N)n2)cc1,191 to 193 °C
15,CC(Cl)C(=O)Nc1ccccc1Cl (configuration not stated),63 to 65 °C
16,O=C(O)Cn1ccc(=O)c([N+](=O)[O-])c1,249 to 251 °C
17,Cc1ccc(N(CCC#N)C(=O)CCl)cc1,56 to 58 °C
18,CCS(=O)(=O)c1nc2ccc(N)cc2s1,90 to 92 °C
19,Cc1csc(Sc2ccc(N)c(C)c2)n1,61 to 63 °C
20,O=C(COc1ccccc1C(=O)O)Nc1ccc(Br)cc1,241 to 243 °C
21,CS(=O)(=O)Nc1ccc(N)c(Cl)c1,129 to 131 °C
22,COc1ccccc1NC1=NCCCS1,83 to 85 °C
23,Nc1nc(CCl)nc2ccccc12,163 to 165 °C
24,CCCCc1ccc(NS(=O)(=O)c2ccc(N)cc2)cc1,159 to 161 °C
